Laboratory results taken from the RepoRT retention time repository.

Assay: HILIC, Waters ACQUITY UPLC BEH HILIC, 150 × 2.1 mm, 1.7 µm, 40 °C, 0.6 mL/min, estimated dead time 0.55 min; A: water + 0.1% formic acid + 20 mM ammonium formate, pH 3.5; B: acetonitrile + 0.1% formic acid, pH 3; gradient (min/%B) 0/95 0.1/95 4.6/80 5.5/50 7.0/50 7.1/95 7.2/95 7.3/95 7.4/95 7.5/95 7.6/95 7.7/95 7.8/95 12.50/95 12.65/95
Conditions: stereoisomer not certain

| LC retention time [min] | Compound |
| --- | --- |
| 4.46 | O=C(O)C1CCCN1 (stereo unspecified) [Proline] |
| 4.82 | CCC(=O)OC(CC(=O)[O-])C[N+](C)(C)C (stereo unspecified) [Propionylcarnitine CAR(3:0)] |
| 1.25 | O=c1[nH]cc(C2OC(CO)C(O)C2O)c(=O)[nH]1 (stereo unspecified) [Pseudouridine] |
| 4.28 | NC(CCCCn1c(C=O)ccc1CO)C(=O)O (stereo unspecified) [Pyralline] |
| 3.03 | C=CC1CN2CCC1CC2C(O)c1ccnc2ccc(OC)cc12 (stereo unspecified) [Quinine] |
| 6.25 | C[S+](CCC(N)C(=O)O)CC1OC(n2cnc3c(N)ncnc32)C(O)C1O (stereo unspecified) [S-Adenosylmethionine] |
| 3.74 | CCCCCCCCCCCCCCCCCC(=O)OC(CC(=O)[O-])C[N+](C)(C)C (stereo unspecified) [Stearoylcarnitine CAR(18:0)] |
| 2.27 | OCC1OC(OC2(CO)OC(CO)C(O)C2O)C(O)C(O)C1O (stereo unspecified) [Sucrose] |
| 2.61 | NCCS(=O)(=O)O [Taurine] |
| 2.47 | CC(CCC(=O)NCCS(=O)(=O)O)C1CCC2C3C(O)CC4CC(O)CCC4(C)C3CC(O)C12C (stereo unspecified) [Taurocholic Acid] |
| 1.81 | CC(CCC(=O)NCCS(=O)(=O)O)C1CCC2C3CCC4CC(O)CCC4(C)C3CC(O)C12C (stereo unspecified) [Taurodeoxycholic Acid] |
| 1.75 | CC(CCC(=O)NCCS(=O)(=O)O)C1CCC2C3C(O)CC4CC(O)CCC4(C)C3CCC12C (stereo unspecified) [Tauroursodeoxycholic acid] |
| 3.78 | CCCCCCCCCCCCCC(=O)OC(CC(=O)[O-])C[N+](C)(C)C (stereo unspecified) [Tetradecanoylcarnitine CAR(14:0)] |
| 5.49 | Cc1ncc(C[n+]2csc(CCO)c2C)c(N)n1 [Thiamine] |
| 4.54 | CC=C(C)C(=O)OC(CC(=O)[O-])C[N+](C)(C)C (stereo unspecified) [Tiglylcarnitine CAR(5:1)] |
| 4.85 | C[n+]1cccc(C(=O)[O-])c1 [Trigonelline] |
| 4.18 | C[N+](C)(C)[O-] [Trimethylamine N-oxide] |
| 3.51 | CC(=O)C[N+](C)(C)C [Trimethylaminoacetone] |
| 3.91 | C[N+](C)(C)C(Cc1c[nH]c2ccccc12)C(=O)[O-] (stereo unspecified) [Tryptophan betaine] |
| 3.82 | NC(Cc1c[nH]c2ccccc12)C(=O)O (stereo unspecified) [Tryptophan] |
| 1.3 | O=C(O)C=Cc1cnc[nH]1 [Urocanic acid] |
| 4.39 | CCCCC(=O)OC(CC(=O)[O-])C[N+](C)(C)C (stereo unspecified) [Valerylcarnitine] |
| 0.673 | CC(=O)CC(c1ccccc1)c1c(O)c2ccccc2oc1=O (stereo unspecified) [Warfarin] |
| 1.15 | O=c1[nH]c(=O)c2[nH]cnc2[nH]1 [Xanthine] |
| 6.02 | C[N+](C)(C)CCOP(=O)([O-])OCC(O)CO (stereo unspecified) [a-Glycerophosphocholine] |

| Compound | LC retention time [min] |
| --- | --- |
| NCCc1c[nH]c2ccccc12 [Tryptamine] | 2.79 |
